According to publication PMC5938390, “Tachyplesin Causes Membrane Instability That Kills Multidrug-Resistant Bacteria by Inhibiting the 3-Ketoacyl Carrier Protein Reductase FabG” (Frontiers in Microbiology, 2018):
Positions of bridges follow the written chain, without caps; N, C: chain ends. Residues, ends and D or L forms follow the SMILES beside them.

How the values were obtained:
E. coli 513 = experiment: Transcriptome analysis (RNA sequencing, FPKM, DESeq); type: cell-based, Escherichia coli; details: Ec; Ta 16 μg/ml, 30 min, 37°C
Description: The Vitek 32 system (bioMerieux, France) and 16S rDNA sequencing were used to verify the clinical isolates A. baumannii 1408, P. aeruginosa 1409, Klebsiella pneumoniae 5 and E. coli 513, which were grown overnight in Luria-Bertani (LB) medium at 37°C with constant shaking at 220 rpm to reach the middle of their logarithmic growth phase. […] After the addition of 2 volumes of RNAprotect Bacteria Reagent (QIAGEN) to stabilized RNA, samples were vortexed for 5 s, incubated for 5 min at room temperature (15–25°C) and collected by centrifugation at 4°C for 5 min at 4000 g.
RNA isolation and sequencing were performed by Novogene Bioinformatics Technology Co., Ltd. (Beijing, China) as previously described ([Liu B. et al., 2014]). Clean reads were mapped to the corresponding bacterial genomes using Bowtie 2 software ([Langmead and Salzberg, 2012]). Gene expression was calculated using the FPKM (expected number of fragments per kilobase of transcript sequence per millions of base pairs sequenced) method with HTSeq software (union model) ([Anders et al., 2015]). Differentially expressed genes were selected based on the DESeq R package with Padj values < 0.05 ([Anders and Huber, 2010]). KEGG pathway analysis was performed using KOBAS (2.0), and the corrected p value cut-off was set at 0.05 ([Li et al., 2015]).

FabG from S. aureus = target: T1, FabG from S. aureus (Staphylococcus aureus, UniProt P0A0H9); experiment: Surface plasmon resonance binding; details: tachyplesin III on CM5 chip, FabG 1.25-10 μg/mL injected, HBS-N buffer
T1 construct: His tag (C); made in house; host or cells: E. coli BL21 DE3 (vector pET28a)
T1 sequence (P0A0H9 1-246): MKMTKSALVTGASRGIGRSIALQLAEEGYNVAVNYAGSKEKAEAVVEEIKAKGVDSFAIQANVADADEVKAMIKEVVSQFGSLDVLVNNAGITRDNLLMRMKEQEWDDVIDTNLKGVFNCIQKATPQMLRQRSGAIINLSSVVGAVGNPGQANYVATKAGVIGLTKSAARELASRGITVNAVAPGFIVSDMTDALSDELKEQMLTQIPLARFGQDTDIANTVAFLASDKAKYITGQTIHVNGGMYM
Description: N-terminal His-tagged FabG from E. coli and C-terminal His-tagged FabG from Staphylococcus aureus were cloned into the NcoI and XhoI cloning sites of the vector pET28a, expressed in BL21 DE3 E. coli and further purified with Ni resin ([Kristan et al., 2009]; [Srinivas and Cronan, 2017]). The binding interaction between tachyplesin III and FabG was analyzed by surface plasmon resonance (SPR) with a Biocore 3000 (Biocore, Piscataway, NJ, United States). Briefly, tachyplesin III was adsorbed onto a CM5 sensor chip using an amine-coupling kit (GE Healthcare, Little Chalfont, United Kingdom) to obtain approximately 1000 resonance units. […] The binding affinity of FabG for tachyplesin III was determined by BIAevaluation 3.0 software (Biacore) with a 1:1 Langmuir binding model for the kinetic calculation ([Wei et al., 2013]).
FIGURE 7 Tachyplesin III binding with FabG inhibits its enzyme activities in vitro, probably by blocking the active site. Binding interactions between tachyplesin III and FabG from E. coli (A) or from S. aureus (E) were analyzed by surface plasmon resonance (SPR) with a Biocore 3000 (Biocore, Piscataway, NJ, United States). […] Statistical significance was analyzed by one-way ANOVA followed by the Newman–Keuls multiple-comparisons test, ^∗∗p < 0.01, ^∗p < 0.05.

For `CC[C@H](C)[C@@H]1NC(=O)CNC(=O)[C@H](CCCNC(=N)N)NC(=O)[C@H](Cc2ccc(O)cc2)NC(=O)[C@@H]2CSSC[C@H](NC1=O)C(=O)N[C@@H](Cc1ccc(O)cc1)C(=O)N[C@@H](CCCNC(=N)N)C(=O)N[C@@H](CCCCN)C(=O)N[C@H](C(=O)N[C@@H](CCCNC(=N)N)C(N)=O)CSSC[C@H](NC(=O)[C@H](Cc1c[nH]c3ccccc13)NC(=O)[C@@H](N)CCCCN)C(=O)N[C@@H](Cc1ccccc1)C(=O)N[C@@H](CCCNC(=N)N)C(=O)N[C@@H](C(C)C)C(=O)N2` [tachyplesin III] (H-KWCFRVCYRGICYRKCR-NH2; disulfide 3-16, 7-12 (inferred); N-terminus and C-terminus assumed), the “Fold change after Ta treatment, gene b1093 (3-ketoacyl-acyl carrier protein reductase)” value (E. coli 513) was 1.11, the “Fold change after Ta treatment, gene b3846 (3-hydroxyacyl-CoA dehydrogenase)” value (E. coli 513) was 2.3 and the “binding with FabG (SPR)” value (FabG from S. aureus) was “could bind”.
